Test results from patent publication US12016852B2, “Pyrrolidine glycosidase inhibitors” (Asceneuron SA, priority 2018, dated 2024).

Target: T1, Human O-GlcNAcase (His-Tagged hOGA) (Homo sapiens, UniProt O60502)
T1 sequence (O60502 1-916): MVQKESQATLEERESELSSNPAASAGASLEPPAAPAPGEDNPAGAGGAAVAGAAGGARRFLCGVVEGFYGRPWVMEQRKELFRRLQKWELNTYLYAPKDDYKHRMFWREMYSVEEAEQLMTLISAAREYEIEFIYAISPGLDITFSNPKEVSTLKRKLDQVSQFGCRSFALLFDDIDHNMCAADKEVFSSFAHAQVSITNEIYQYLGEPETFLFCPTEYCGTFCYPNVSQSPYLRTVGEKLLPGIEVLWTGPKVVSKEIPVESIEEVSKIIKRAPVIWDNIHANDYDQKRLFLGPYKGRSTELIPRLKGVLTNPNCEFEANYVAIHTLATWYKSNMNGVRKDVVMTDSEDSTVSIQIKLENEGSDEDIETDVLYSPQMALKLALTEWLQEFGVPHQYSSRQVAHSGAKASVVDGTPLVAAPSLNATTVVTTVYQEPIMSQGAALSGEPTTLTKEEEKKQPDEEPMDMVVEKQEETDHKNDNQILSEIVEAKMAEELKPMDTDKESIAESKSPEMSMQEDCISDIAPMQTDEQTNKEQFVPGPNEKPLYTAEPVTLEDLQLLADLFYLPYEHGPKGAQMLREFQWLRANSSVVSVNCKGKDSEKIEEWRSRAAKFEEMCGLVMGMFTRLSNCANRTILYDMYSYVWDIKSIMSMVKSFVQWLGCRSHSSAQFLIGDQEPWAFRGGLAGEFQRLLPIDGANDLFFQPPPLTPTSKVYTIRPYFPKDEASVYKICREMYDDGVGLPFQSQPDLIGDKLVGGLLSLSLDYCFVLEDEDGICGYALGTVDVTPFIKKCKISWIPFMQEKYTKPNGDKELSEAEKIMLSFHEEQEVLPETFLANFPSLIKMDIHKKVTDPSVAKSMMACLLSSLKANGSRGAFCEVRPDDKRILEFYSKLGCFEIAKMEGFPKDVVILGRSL
Test: Human O-GlcNAcase enzyme inhibition assay
Format: biochemical
Conditions: 20 nM His-Tagged hOGA, 10 μM FL-GlcNAc, McIlvaine's Buffer pH 6.5, 60 min at room temperature, fluorescence; read-out: OGA IC50
How it was run: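 20 nM His-tagged hOGA with 10 μM fluorescein-GlcNAc substrate in McIlvaine's buffer pH 6.5, 60 min at room temperature, stopped with glycine pH 10.75. Fluorescence (485/520 nm) background-corrected using 3 uM Thiamet as full inhibition and 0.5% DMSO as no inhibition; IC50 from sigmoidal dose-response.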

Structure (SMILES)	IC50
c1cc(N2CCOCC2)ccc1CN1CCCC1c1ccc2c(c1)OCCO2 (racemic) [Example 23, 4-(4-((2-(2,3-dihydrobenzo[b] [1,4]dioxin-6-yl)pyrrolidin-1-yl)methyl)phenyl)morpholine]	200 to 1000 nM
Cc1cc(-c2ccncc2)ccc1CN1CCCC1c1ccc2c(c1)OCCO2 (racemic) [Example 49, 4-(4-((2-(2,3-dihydrobenzo[b] [1,4]dioxin-6-yl)pyrrolidin-1-yl)methyl)-3-methylphenyl)pyridine]	200 to 1000 nM
COc1cccc(-c2ccc(CN3CCCC3c3ccc4c(c3)OCCO4)cc2)n1 (racemic) [Example 151]	200 to 1000 nM
Cc1cc(C(=O)Nc2ccc(CN3CCCC3c3ccc4c(c3)OCCO4)cc2)cc(C)n1 (racemic) [Example 156]	200 to 1000 nM
Cc1cc(-c2cccnc2C)ccc1CN1CCCC1c1ccc2c(c1)OCCO2 (racemic) [Example 56, 3-(4-((2-(2,3-dihydrobenzo[b] [1,4]dioxin-6-yl)pyrrolidin-1-yl)methyl)-3-methylphenyl)-2-methylpyridine]	200 to 1000 nM
Cc1cc(C(=O)Nc2ccc(CN3CCCC3c3ccc4c(c3)OCCO4)cc2)ccn1 (racemic) [Example 158]	200 to 1000 nM
CS(=O)(=O)N1CCN(c2ccc(CN3CCCC3c3ccc4c(c3)OCCO4)cc2)CC1 (single isomer, unassigned) [Example 148]	1000 to 10000 nM
O=C1CCCCN1c1ccc(CN2CCCC2c2ccc3c(c2)OCCO3)cc1 (racemic) [Example 62, 1-(4-((2-(2,3-dihydrobenzo[b] [1,4]dioxin-6-yl)pyrrolidin-1-yl)methyl)phenyl)piperidin-2-one]	200 to 1000 nM
CS(=O)(=O)c1ccc(-c2ccc(CN3CCCC3c3ccc4c(c3)OCCO4)nc2)cc1 (racemic) [Example 14, 2-((2-(2,3-dihydrobenzo[b] [1,4]dioxin-6-yl)pyrrolidin-1-yl)methyl)-5-(4-(methylsulfonyl)phenyl)pyridine]	200 to 1000 nM
CS(=O)(=O)c1cnc(-c2ccc(CN3CCCC3c3ccc4c(c3)OCCO4)cc2)nc1 (racemic) [Example 149]	50 to 200 nM
CS(=O)(=O)c1cccc(-c2ccc(CN3CCCC3c3ccc4c(c3)OCCO4)cc2)c1 (racemic) [Example 44, 2-(2,3-dihydrobenzo[b] [1,4]dioxin-6-yl)-1-((3′-(methylsulfonyl)-[1,1′-biphenyl]-4-yl)methyl)pyrrolidine]	200 to 1000 nM
c1cnc2ccc(CN3CCCC3c3ccc4c(c3)OCCO4)cc2c1 (racemic) [Example 19, 6-((2-(2,3-dihydrobenzo[b] [1,4]dioxin-6-yl)pyrrolidin-1-yl)methyl)quinoline]	200 to 1000 nM
c1ccc(-c2ccc(CN3CCCC3c3ccc4c(c3)OCCO4)cc2)nc1 (single isomer, unassigned) [Example 40, (S)-2-(4-((2-(2,3-dihydrobenzo[b] [1,4]dioxin-6-yl)pyrrolidin-1-yl)methyl)phenyl)pyridine or (R)-2-(4-((2-(2,3-dihydrobenzo[b] [1,4]dioxin-6-yl)pyrrolidin-1-yl)methyl)phenyl)pyridine]	50 to 200 nM
Cn1cc(-c2ccc(CN3CCCC3c3ccc4c(c3)OCC4)cc2)cn1 (racemic) [Example 11, 4-(4-((2-(2,3-dihydrobenzofuran-6-yl)pyrrolidin-1-yl)methyl)phenyl)-1-methyl-1H-pyrazole]	< 50 nM
Cn1cc(-c2ccc(CN3CCCC3c3ccc4c(c3)OCCO4)cc2)cn1 (single isomer, unassigned) [Example 6, (S)-4-(4-((2-(2,3-dihydrobenzo[b] [1,4]dioxin-6-yl)pyrrolidin-1-yl)methyl)phenyl)-1-methyl-1H-pyrazole or (R)-4-(4-((2-(2,3-dihydrobenzo[b] [1,4]dioxin-6-yl)pyrrolidin-1-yl)methyl)phenyl)-1-methyl-1 H-pyrazole]	< 50 nM
